Reference: ChEMBL document CHEMBL4118236, “Click Chemistry-Based Discovery of [3-Hydroxy-5-(1 H-1,2,3-triazol-4-yl)picolinoyl]glycines as Orally Active Hypoxia-Inducing Factor Prolyl Hydroxylase Inhibitors with Favorable Safety Profiles for the Treatment of Anemia” (J Med Chem, 2018)
In brackets after ≈: the same amount, converted by molar mass.

Tests used:
[1] = system: HEK293; assay: Cytotoxicity against HEK293 cells assessed as reduction in cell viability at 10 to 100 uM after 72 hrs by MTT assay; assay type: cell-based; settings: human, hek293, 72 h
[2] = Effective permeability of the compound at pH 7.4 by PAMPA; assay type: ADME; settings: read-out: Peff
[3] = Lipophilicity, log D of the compound at pH 7.4 by potentiometric titration method; assay type: physicochemical; settings: buffer
[4] = Dissociation constant, pKa of the compound by potentiometric titration method; assay type: physicochemical
[5] = system: Hep 3B2; assay: Cytotoxicity against human Hep3B cells assessed as reduction in cell viability at 10 to 100 uM after 72 hrs by MTT assay; assay type: cell-based; settings: hep 3b2, 72 h
[6] = system: Mus musculus; assay: Antianemic activity in C57BL/6 mouse cisplatin-induced anemia model assessed as increase in hemoglobin level at 10 mg/kg, po administered every other day for 30 days relative to control; assay type: functional
[7] = system: Mus musculus; assay: Antianemic activity in C57BL/6 mouse cisplatin-induced anemia model assessed as increase in hemoglobin level at 25 mg/kg, po administered every other day for 30 days relative to control; assay type: functional
[8] = Intrinsic aqueous solubility of the compound at pH 7.4 by potentiometric titration method; assay type: physicochemical; settings: buffer
[9] = system: HUVEC; assay: Cytotoxicity against HUVEC assessed as reduction in cell viability at 10 to 100 uM after 72 hrs by MTT assay; assay type: cell-based; settings: human
[10] = system: L02; assay: Cytotoxicity against human L02 cells assessed as reduction in cell viability at 10 to 100 uM after 72 hrs by MTT assay; assay type: cell-based; settings: l02, 72 h
[11] = system: Mus musculus; assay: Acute toxicity in C57BL/6 mouse assessed as change in kidney to body weight ratio at 25 to 200 mg/kg, po administered every other day for 14 days measured on day 14 post last dose; assay type: organism-based; settings: in vivo, 336 h
[12] = system: Mus musculus; assay: Acute toxicity in C57BL/6 mouse assessed as change in liver to body weight ratio at 25 to 200 mg/kg, po administered every other day for 14 days measured on day 14 post last dose; assay type: organism-based; settings: in vivo, 336 h
[13] = Therapeutic index, ratio of compound effect for toxicity in C57BL/6 mouse to compound effect for upregulation of plasma EPO level in C57BL/6 mouse; assay type: organism-based; settings: read-out: TI
[14] = system: Rattus norvegicus; assay: AUC (0 to infinity) in Sprague-Dawley rat at 1 mg/kg, iv by LC-MS/MS; assay type: ADME, organism-based; design: dose 1 mg/kg, route intravenous, time infinity; settings: in vivo
[15] = system: Mus musculus; assay: Nephrotoxicity in C57BL/6 mouse at 25 to 200 mg/kg, po administered every other day for 14 days measured on day 14 post last dose by H and E staining based assay; assay type: toxicity, organism-based; settings: in vivo, 336 h
[16] = Clearance in Sprague-Dawley rat at 10 mg/kg, po by LC-MS/MS; assay type: ADME, organism-based; settings: in vivo
[17] = biological target: T1, Egl nine homolog 1 (Homo sapiens, UniProt Q9GZT9)
[18] = system: Mus musculus; assay: Upregulation of plasma EPO level in C57BL/6 mouse assessed as EPO level at 50 mg/kg, po after 4 hrs by ELISA; assay type: functional
[19] = Cmax in Sprague-Dawley rat at 10 mg/kg, po by LC-MS/MS; assay type: ADME, organism-based; design: dose 10 mg/kg, route oral; settings: in vivo
[20] = system: Rattus norvegicus; assay: AUC (0 to t) in Sprague-Dawley rat at 10 mg/kg, po by LC-MS/MS; assay type: ADME, organism-based; settings: in vivo
[21] = system: Rattus norvegicus; assay: AUC (0 to t) in Sprague-Dawley rat at 1 mg/kg, iv by LC-MS/MS; assay type: ADME, organism-based; settings: in vivo
[22] = system: Mus musculus; assay: Acute toxicity in C57BL/6 mouse assessed as effect on growth at 25 to 200 mg/kg, po administered every other day for 14 days; assay type: organism-based; settings: in vivo, 336 h
[23] = system: Mus musculus; assay: Acute toxicity in C57BL/6 mouse assessed as behavioral abnormality at 25 to 200 mg/kg, po administered every other day for 14 days; assay type: organism-based; settings: in vivo, 336 h
[24] = Half life in Sprague-Dawley rat at 1 mg/kg, iv by LC-MS/MS; assay type: ADME, organism-based; settings: in vivo
[25] = Oral bioavailability in Sprague-Dawley rat at 10 mg/kg by LC-MS/MS; assay type: ADME, organism-based; settings: in vivo
[26] = Apparent volume of distribution in Sprague-Dawley rat at 1 mg/kg, iv by LC-MS/MS; assay type: ADME, organism-based; settings: in vivo, read-out: Vz
[27] = MRT (0 to infinity) in Sprague-Dawley rat at 1 mg/kg, iv by LC-MS/MS; assay type: ADME, organism-based; settings: in vivo
[28] = Clearance in Sprague-Dawley rat at 1 mg/kg, iv by LC-MS/MS; assay type: ADME, organism-based; settings: in vivo
[29] = MRT (0 to infinity) in Sprague-Dawley rat at 10 mg/kg, po by LC-MS/MS; assay type: ADME, organism-based; settings: in vivo
[30] = system: Mus musculus; assay: Acute toxicity in C57BL/6 mouse assessed as change in lungs to body weight ratio at 25 to 200 mg/kg, po administered every other day for 14 days measured on day 14 post last dose; assay type: organism-based; settings: in vivo, 336 h
[31] = system: Mus musculus; assay: Acute toxicity in C57BL/6 mouse assessed as effect on food intake at 25 to 200 mg/kg, po administered every other day for 14 days measured during compound dosing; assay type: organism-based; settings: in vivo, 336 h
[32] = system: Mus musculus; assay: Toxicity in C57BL/6 mouse assessed as damage in spleen at 25 to 200 mg/kg, po administered every other day for 14 days measured on day 14 post last dose by H and E staining based assay; assay type: organism-based; settings: in vivo, 336 h
[33] = Half life in Sprague-Dawley rat at 10 mg/kg, po by LC-MS/MS; assay type: ADME, organism-based; settings: in vivo
[34] = system: Mus musculus; assay: Cardiotoxicity in C57BL/6 mouse at 25 to 200 mg/kg, po administered every other day for 14 days measured on day 14 post last dose by H and E staining based assay; assay type: toxicity, organism-based; settings: in vivo, 336 h
[35] = system: Mus musculus; assay: Acute toxicity in C57BL/6 mouse assessed as change in spleen to body weight ratio at 25 to 200 mg/kg, po administered every other day for 14 days measured on day 14 post last dose; assay type: organism-based; settings: in vivo, 336 h
[36] = Tmax in Sprague-Dawley rat at 10 mg/kg, po by LC-MS/MS; assay type: ADME, organism-based; settings: in vivo
[37] = system: Mus musculus; assay: Toxicity in C57BL/6 mouse assessed as damage in lungs at 25 to 200 mg/kg, po administered every other day for 14 days measured on day 14 post last dose by H and E staining based assay; assay type: organism-based; settings: in vivo, 336 h
[38] = system: Mus musculus; assay: Hepatotoxicity in C57BL/6 mouse at 25 to 200 mg/kg, po administered every other day for 14 days measured on day 14 post last dose by H and E staining based assay; assay type: toxicity, organism-based; settings: in vivo, 336 h
[39] = system: Mus musculus; assay: Acute toxicity in C57BL/6 mouse assessed as change in heart to body weight ratio at 25 to 200 mg/kg, po administered every other day for 14 days measured on day 14 post last dose; assay type: organism-based; settings: in vivo, 336 h
[40] = system: Rattus norvegicus; assay: Apparent volume of distribution in Sprague-Dawley rat at 10 mg/kg, po by LC-MS/MS; assay type: ADME, organism-based; settings: in vivo
[41] = biological target: T1, Egl nine homolog 1; remark: listed apart in the source
[42] = system: Rattus norvegicus; assay: AUC (0 to infinity) in Sprague-Dawley rat at 10 mg/kg, po by LC-MS/MS; assay type: ADME, organism-based; design: dose 10 mg/kg, time infinity, route oral; settings: in vivo
[43] = system: Mus musculus; assay: Acute toxicity in C57BL/6 mouse assessed as apparent signs of toxicity at 25 to 200 mg/kg, po administered every other day for 14 days; assay type: organism-based; settings: in vivo, 336 h
[44] = system: Mus musculus; assay: Acute toxicity in C57BL/6 mouse assessed as increase in body weight at 25 to 200 mg/kg, po administered every other day for 14 days measured during compound dosing; assay type: organism-based; settings: in vivo, 336 h

T1 sequence (Q9GZT9 whole entry): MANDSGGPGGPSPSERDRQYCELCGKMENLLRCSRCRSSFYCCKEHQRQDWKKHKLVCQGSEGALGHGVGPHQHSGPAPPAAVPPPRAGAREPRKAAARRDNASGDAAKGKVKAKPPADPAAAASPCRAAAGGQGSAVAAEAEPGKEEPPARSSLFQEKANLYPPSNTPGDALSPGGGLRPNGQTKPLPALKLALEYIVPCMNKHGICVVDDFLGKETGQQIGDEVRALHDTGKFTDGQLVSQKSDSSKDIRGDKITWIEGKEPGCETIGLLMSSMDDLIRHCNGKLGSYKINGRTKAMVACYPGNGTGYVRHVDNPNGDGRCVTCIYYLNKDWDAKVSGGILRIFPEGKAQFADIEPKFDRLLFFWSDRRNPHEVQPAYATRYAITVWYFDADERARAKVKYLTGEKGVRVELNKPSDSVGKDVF

Which Activity [1] does the source give for `Cc1nc(C(=O)NCC(=O)O)c(O)c2ccc(Oc3ccccc3)cc12` [ROXADUSTAT] here?
The Activity was “Non-Toxic”.

What about the Papp [2] of the same molecule?
The Papp was 12.7 ×10⁻⁶ cm/s.

And the logD [3]?
The logD was 3.77.

And the pKa [4]?
The pKa was 3.15.

What about the Activity [5] of the same molecule?
The Activity was “Non-Toxic”.

What about the Activity [6] of the same molecule?
Its Activity is 67.7%.

And the Activity [7]?
Its Activity is 92.5%.

What about the solubility [8] of the same molecule?
The solubility was 255 µg/mL (≈ 725 µM).

And the Activity [9]?
Its Activity is “Non-Toxic”.

And the Activity [10]?
Its Activity is “Non-Toxic”.

Which results are given for `O=C(O)CNC(=O)c1ncc(-c2cn(CCCc3ccc(Cl)cc3)nn2)cc1O`?
Activity [11]: Non-Toxic; Activity [1]: Non-Toxic; Activity [12]: Non-Toxic; Papp [2]: 11.5 ×10⁻⁶ cm/s; selectivity ratio [13]: 10; AUC [14]: 933 ng·h/mL; Activity [15]: Non-Toxic; CL/F [16]: 31.2 mL/min/kg; IC50 [17]: 62.2 nM; Activity [18]: 1300 pg/mL; Cmax [19]: 1550 ng/mL; logD [3]: 2.13; AUCt [20]: 4990 ng·h/mL; AUCt [21]: 923 ng·h/mL; Activity [22]: Non-Toxic; Activity [23]: Non-Toxic; half-life [24]: 1.51 h; pKa [4]: 3.21; bioavailability [25]: 54.1%; Vd [26]: 2.31 L/kg; MRT inf [27]: 0.623 h; clearance [28]: 19.4 mL/min/kg; MRT inf [29]: 3.28 h; Activity [30]: Non-Toxic; Activity [31]: Non-Toxic; Activity [32]: Non-Toxic; half-life [33]: 3.07 h; Activity [5]: Non-Toxic; Activity [34]: Non-Toxic; Activity [6]: 61.9%; Activity [7]: 96.7%; solubility [8]: 1180 µg/mL (≈ 2850 µM); Activity [35]: Non-Toxic; Tmax [36]: 0.917 h; Activity [37]: Non-Toxic; Activity [38]: Non-Toxic; Activity [9]: Non-Toxic; Activity [39]: Non-Toxic; Vz [40]: 8.634 L/kg; IC50 [41]: 1310 nM; AUC [42]: 5440 ng·h/mL; Activity [43]: Non-Toxic; Activity [10]: Non-Toxic; Activity [44]: Toxic

With `O=C(O)CNC(=O)c1ncc(-c2cn(CCc3ccc(Cl)cc3)nn2)cc1O` as the molecule, how does the Activity [1] read?
The Activity was “Non-Toxic”.

And the Activity [5]?
Its Activity is “Non-Toxic”.

What about the Activity [9] of the same molecule?
The Activity was “Non-Toxic”.

And the Activity [10]?
The Activity was “Non-Toxic”.
